According to PMC9598925, “Synthetic Amphipathic β-Sheet Temporin-Derived Peptide with Dual Antibacterial and Anti-Inflammatory Activities” (Antibiotics, 2022):
Non-standard residues stand in square brackets, D forms with d. Residues, ends and D or L forms follow the SMILES beside them. Nle = CCCC[C@H](N)C(=O)O

Columns and labels:
[1] = Peptide aggregation in LUVs, Thioflavin T; assay type: physicochemical; details: LUVs DOPG/CL (58/42), 0.1 mM lipid
Procedure: Regarding peptide aggregation in LUVs, was monitored using the Thioflavin T as fluorescent probe. LUVs were prepared using the extrusion method. Firstly, the lipid films (final concentration of 0.1 mM), made of DOPG, CL (58/42 ratio in moles) and DOPG/DOPE/CL (63/23/12 ratio in moles), were prepared by dissolving an appropriate amount of lipids in chloroform. The solvent was removed under nitrogen stream, water was added, and the film lipids were freeze-dried. Then, the lipid films were hydrated with 100 mM NaCl, 10 mM Tris-HCl, 25 μM Tht buffer, pH 7.4, and vortexed for 1 h. Then, the lipid suspension was freeze-thawed 6 times and extruded 10 times through polycarbonate membranes with […] diameter pores to obtain LUVs. The aggregation of [Nle^1, DLeu^9, DLys^10]TL was monitored titrating LUVs with different peptide concentrations of 5, 10, 15, 20, 30, 50 μM. Spectra were recorded before and after the addition of peptide using a Varian Cary Eclipse fluorescence spectrometer, exciting the sample at 450 nm (slit width, 10 nm) and recording fluorescence emission at 482 nm (slit width, 5 nm). Aggregation was quantified according to this equation: %A= […] × 100, where Ff indicates the value of fluorescence after peptide addition, F0 the fluorescence in the absence of peptide and Fmax is the fluorescence maximum obtained immediately after peptide addition.

[2] = test system: IL-6 production in LPS-stimulated J774A.1 cells; experiment: Anti-inflammatory activity, IL-6 ELISA in LPS-stimulated macrophages; assay type: cell-based, murine; details: LPS 10 µg∙mL^−1, peptide 3 μM, 24 h, ELISA of supernatant, three independent experiments
Procedure: Mouse macrophage cell line J774A.1 was cultured as previously described. Cells were seeded in Petri culture dishes (100 mm × 20 mm) at a density of 5 × 10^5 cells per dish and allowed to grow for 24 h. The medium was then replaced, and cells were treated with LPS (10 μg∙mL^−1) in presence or absence of [Nle^1, DLeu^9, DLys^10]TL at the concentration of 3 µM (non-cytotoxic concentration from MTT assay). Following incubation of 24 h, cells were collected with a cell scraper, and after centrifugation at 14,000× g for 10 min at 4 °C, the supernatant was collected and assayed for IL-6 enzyme-linked immunosorbent assay (ELISA) analysis.

in vitro = details: male, human, 90% human serum (from human male AB plasma)
Procedure: The peptide was mixed with 90% of human serum at a final concentration of 200 μM and incubated at 37 °C [27]. Aliquots of the mixture were taken at time intervals of 15, 45, 75, 90 and 120 min. The serum protein was removed by the precipitation with acetonitrile (MeCN) and centrifuged at 13,000 rpm for 15 min. Then, the supernatant was taken and analyzed by ultra-high performance liquid chromatography (UHPLC) using a Phenomenex Kinetex column (4.6 mm × 150 mm, 5 μm, C18) and a linear gradient from 10 to 90% of MeCN (0.1% TFA) in water (0.1% TFA) over 20 min. The percentage of the intact peptide was calculated by integrating the peak area of the UHPLC chromatogram.

ANTS/DPX leakage assay = details: 100% = 0.1% Triton
Procedure: The ability of the peptide [Nle^1, DLeu^9, DLys^10]TL to induce LUVs leakage was evaluated using ANTS/DPX assay. After the preparation of lipid films (0.1 mM) as described above, fluorophores ANTS (12.5 mM) and DPX (45 mM) were dissolved in water and added to lipid films. The mixture was frozen and lyophilized overnight. Then, the lipid films with ANTS and DPX were hydrated with PBS 1× buffer, vortexed for 1 h and then treated to obtain LUVs. The nonencapsulated ANTS and DPX were removed by gel filtration using a Sephadex G-50 column (1.5 cm × 10 cm) at room temperature. The leakage experiment was performed titrating LUVs with different peptide concentrations of 5, 10, 15, 20, 30, 50 μM, and each sample was excited at 385 nm (slit width, 5 nm) and the fluorescence emission was recorded at 512 nm (slit width, 5 nm). The liposomes leakage promoted by peptide was correlated with an increase of ANTS fluorescence at 512 nm. In this experiment, the control was represented by the complete release of ANTS after the treatment of LUVs with 0.1% Triton. The liposomes leakage was calculated as % Leakage = (Fi − F0)/(Ft − F0), where F0 is the fluorescence of intact LUVs before the addition of peptide, and Fi and Ft is the intensities of the fluorescence achieved after peptide and Triton-X treatment, respectively.

With `CCCC[C@H](N)C(=O)N[C@@H](Cc1ccccc1)C(=O)N[C@H](C(=O)N1CCC[C@H]1C(=O)N[C@@H](Cc1c[nH]c2ccccc12)C(=O)N[C@@H](Cc1ccccc1)C(=O)N[C@@H](CO)C(=O)N[C@@H](CCCCN)C(=O)N[C@@H](Cc1ccccc1)C(=O)N[C@H](CC(C)C)C(=O)N[C@H](CCCCN)C(=O)N[C@@H](CCCNC(=N)N)C(=O)N[C@H](C(=O)N[C@@H](CC(C)C)C(N)=O)[C@@H](C)CC)C(C)C` [[Nle^1, DLeu^9, DLys^10]TL] (H-[Nle]FVPWFSKF[dL][dK]RIL-NH2) the “aggregation (ThT)” value ([1]; 5 μM peptide, pH 7.4, 25 μM ThT fluorescence) was ~ 22%, the “aggregation (ThT)” value ([1]; 30 μM peptide, pH 7.4, ThT fluorescence) was “completely aggregated” and the IL-6 production [2] was “significant modulation of IL-6 production”. For the same compound, the remaining at 0.75 h, 200 μM (in vitro) was about 75%, the remaining at 2 h, 200 μM (in vitro) was about 50% and the LUVs leakage (ANTS/DPX leakage assay; 10 μM peptide, LUVs DOPG/CL) was ~ 60%. The LUVs leakage (ANTS/DPX leakage assay; highest concentration of 50 μM, LUVs DOPG/DOPE/CL) was ~ 20%.
